Several values for one entry are separate records, joined by “and”; a condition that tells them apart may be missing. Equal entries are not always repeated. Square brackets hold non-standard residues; d marks the D form. Peptide text beside a SMILES is read from it.

Series [1] has as its system murine fibroblast L929 cells. The experiment in a line: qPCR of Ifnb1/Cxcl10 mRNA in L929 cells (ISD or HSV-1). The series is classed as cell-based, mouse. On the set-up: key to Ifnb1 mRNA (Fig. S2c) / Cxcl10 mRNA (Fig. S2c) / Ifnb1 mRNA (Fig. S2d) / Cxcl10 mRNA (Fig. S2d): mRNA level normalized to GAPDH (relative expression). On the procedure:
The indicated cells were stimulated with either ISD (Sangon Biotech), HSV-1 (Provided by Dr. Zhengfan Jiang), HSV60mer (Sangon Biotech), SATE-cddA[70], 2’3’-cGAMP (Invivogen, Cat# tlrl-nacga23-1), ADU-S100 (MedChemExpress, Cat# HY-12885A) or Poly(I:C) (Invivogen, Cat# tlrl-pic) after XQ2 or XQ2B treatment. Total RNA was isolated from indicated cells that incubated with the drugs for indicated time or mice tissues by using NucleoZOL reagent (MACHEREY-NAGEL) according to the manufacturer’s instructions. The quantifications of mRNA levels were carried out by real-time PCR using a PerfectStart® Uni RT&qPCR Kit (TransGen Biotech) on the QuantStudio 5 qPCR machine (Applied Biosystems). Samples were carried out in triplicate and the target CT values were normalized to GAPDH CT values. Primers of qPCR used in this study can be found in Supplementary Table S2. […]
(c) L929, p = 0.0005 (Ifnb1),
BMDMs, p = 0.0001 (Ifnb1), p < 0.0001 (Cxcl10).
representative of three independent experiments in (a-g). (Data are presented as mean ± SD, n = 3 independent
(§1) Source data are provided as a Source Data file.
On the technique in general: Real-time PCR tracks product formation cycle by cycle.

The nature of another series: in vitro. The following applies: mouse, Cell viability (Fig. S2e). As for the experimental part: (§2) Cell viability was measured by cell counting kit-8 (TargetMol) according to the manufacturer’s instructions. […]
(§3) (e-g) THP1 cells (e), L929 cells (f) and RAW264.7 cells (g) were exposed to the indicated doses of XQ2 for 48h, the cell viability was measured by CCK8 assay. Data are representative of three independent experiments in (a-g). (Data are presented as mean ± SD, n = 3 independent samples in (a-g), **p < 0.01, ***p < 0.001, ****p < 0.0001 using one-way ANOVA with Dunnett’s post hoc test).
as §1

Another series relates to RAW264.7 cells. Kind of series: in vitro. The following applies: for Cell viability (Fig. S2e): RAW264.7 (48h). On the procedure:
as §2, §3, §1

Series [2] deals with L929 cells. Kind of series: in vitro. The following applies: for Cell viability (Fig. S2e): L929 (48h). On the procedure: as §2, §3, §1
For series [3], the system named is L929 cells. The experiment in a line: HSV-1 cytopathogenic effect, crystal violet staining. Type of series: cell-based, mouse. The following applies: 10 μM. On the procedure:
L929 cells were seeded into 12-well plates at a density of 5 × 10^5 cells per well, and living cells were stained with crystal violet staining solution (Beyotime Biotechnology) according to the manufacturer’s instructions.
(In general: Damage to the host cells serves as the signal in cytopathic effect assays.)

For another series, the target named is hcGAS-FL + FAM-ISD (Homo sapiens, UniProt Q8N884). Kind of series: biochemical. As for the experimental part: Purified hcGAS-FL (300 nM) or hcGAS-FL (D191R) (300 nM) and FAM-labeled DNA (FAM-ISD) (40 nM) were incubated with or without XQ2 in buffer (20 mM HEPSE, pH 7.5, 125 mM KCl, 10 mM MgCl2). Samples were dispensed in 30 μ L final volumes per well into a 384-well flat-bottom black plate (Corning 3575). The polarization was detected by a microplate reader (BioTek Synergy H1) with a fluorescence polarization filter cube (excitation wavelength: 485 ± 10 nm; emission wavelength: 528 ± 10 nm) immediately.

Series [4] concerns THP1 cells stimulated with SATE-cddA, 2’3’-cGAMP or ADU-S100 (STING agonists). Kind of series: qPCR of IFNB1 mRNA in THP1 cells stimulated by STING agonists. The series is classed as cell-based, human. Also noted: key to IFNB1 mRNA level (Fig. S7c): relative mRNA level, target CT normalized to GAPDH CT. As for the experimental part:
The indicated cells were stimulated with either ISD (Sangon Biotech), HSV-1 (Provided by Dr. Zhengfan Jiang), HSV60mer (Sangon Biotech), SATE-cddA[70], 2’3’-cGAMP (Invivogen, Cat# tlrl-nacga23-1), ADU-S100 (MedChemExpress, Cat# HY-12885A) or Poly(I:C) (Invivogen, Cat# tlrl-pic) after XQ2 or XQ2B treatment. Total RNA was isolated from indicated cells that incubated with the drugs for indicated time or mice tissues by using NucleoZOL reagent (MACHEREY-NAGEL) according to the manufacturer’s instructions. The quantifications of mRNA levels were carried out by real-time PCR using a PerfectStart® Uni RT&qPCR Kit (TransGen Biotech) on the QuantStudio 5 qPCR machine (Applied Biosystems). Samples were carried out in triplicate and the target CT values were normalized to GAPDH CT values. Primers of qPCR used in this study can be found in Supplementary Table S2.
IFNB1 mRNA relative level […]
Supplementary Fig. 7. XQ2B inhibits the activity of cGAS in vitro. […]
(e) THP1 cells were pretreated
Data are representative of
as §1

Chain of hcGAS-FL + FAM-ISD (Q8N884 whole entry): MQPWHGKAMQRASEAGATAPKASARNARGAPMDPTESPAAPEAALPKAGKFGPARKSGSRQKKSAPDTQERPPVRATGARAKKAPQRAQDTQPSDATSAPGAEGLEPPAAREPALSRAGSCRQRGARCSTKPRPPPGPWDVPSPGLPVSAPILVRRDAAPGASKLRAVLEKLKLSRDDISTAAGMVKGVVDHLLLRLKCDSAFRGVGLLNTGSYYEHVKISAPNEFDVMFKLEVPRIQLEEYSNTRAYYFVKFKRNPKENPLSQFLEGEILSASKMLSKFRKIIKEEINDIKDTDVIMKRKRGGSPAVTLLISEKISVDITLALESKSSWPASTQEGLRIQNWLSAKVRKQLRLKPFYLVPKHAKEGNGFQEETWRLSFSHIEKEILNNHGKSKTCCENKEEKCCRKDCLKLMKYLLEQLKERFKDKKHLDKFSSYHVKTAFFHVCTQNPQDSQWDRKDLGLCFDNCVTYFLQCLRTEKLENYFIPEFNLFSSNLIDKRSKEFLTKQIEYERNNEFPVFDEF

For the compound `CC(C)C[C@@H]1NC(=O)[C@H](CCCNC(=N)N)NC(=O)[C@H](C(C)C)NC(=O)[C@@H]2CCCN2C(=O)[C@@H](Cc2ccccc2)NC(=O)[C@H](CC(C)C)NC(=O)[C@H](CCCNC(=N)N)NC(=O)[C@H](C(C)C)NC(=O)[C@H](C)NC(=O)[C@@H](Cc2ccccc2)NC1=O` [XQ2, Cyclo (LfAVRLfPVR)] (cyclo(L[dF]AVRL[dF]PVR)), the “Ifnb1 and Cxcl10 expression induced by ISD and HSV-1” value in series [1] (L929, 10 μM) is “significantly inhibited the expression of Ifnb1 and its downstream gene Cxcl10”. Also, the “Cxcl10 mRNA (Fig. S2d)” value in series [1] (L929, HSV-1+XQ2) was 14.7732 and 16.7433 and 18.5165; in series [1] (L929, XQ2 alone), 1.1537 and 1.297 and 1.725. The “Ifnb1 mRNA (Fig. S2d)” value in series [1] (L929, HSV-1+XQ2) is 2.433 and 2.873 and 2.57; in series [1] (L929, XQ2 alone) it was 1.659 and 1.773 and 1.653. In addition, the “Cxcl10 mRNA (Fig. S2c)” value in series [1] (L929, ISD+XQ2) is 490.131 and 497.538 and 429.114; in series [1] (L929, XQ2 alone), 1.1537 and 1.297 and 1.725. The “Ifnb1 mRNA (Fig. S2c)” value in series [1] (L929, ISD+XQ2) was 47.632 and 43.4073 and 39.6029; in series [1] (L929, XQ2 alone), 1.659 and 1.773 and 1.653. The viability (usually a read-out of living cells in per cent, often relative to untreated cells) at 48 h, 0.23 µM in the series “in vitro” (L929 cells, L929 (48h), XQ2 0.23 μM) stood at 108%. Also, the viability at 48 h, 0.47 µM in “in vitro” (L929 cells, L929 (48h), XQ2 0.47 μM) was 90.1%. The viability at 48 h, 0.94 µM in the series “in vitro” (L929 cells, L929 (48h), XQ2 0.94 μM) was 83.6%. Besides, in the series “in vitro” (L929 cells, L929 (48h), XQ2 1.88 μM), the viability at 48 h, 1.88 µM worked out at 85.4%. Further, the viability at 48 h, 3.75 µM in “in vitro” (L929 cells, L929 (48h), XQ2 3.75 μM) was determined as 90%. Moreover, the viability at 48 h, 7.5 µM in “in vitro” (L929 cells, L929 (48h), XQ2 7.5 μM) amounted to 93.1%. Moreover, in “in vitro” (L929 cells, L929 (48h), XQ2 15 μM), the viability at 48 h, 15 µM was found to be 86.3%. In “in vitro” (RAW264.7 cells, RAW264.7 (48h), XQ2 0.16 μM), the viability at 48 h, 0.16 µM was found to be 100%. The viability at 48 h, 0.31 µM in “in vitro” (RAW264.7 cells, RAW264.7 (48h), XQ2 0.31 μM) came out at 102%. Further, in “in vitro” (RAW264.7 cells, RAW264.7 (48h), XQ2 0.63 μM), the viability at 48 h, 0.63 µM was found to be 104%. Further, in the series “in vitro” (RAW264.7 cells, RAW264.7 (48h), XQ2 1.25 μM), the viability at 48 h, 1.25 µM worked out at 104%. In “in vitro” (RAW264.7 cells, RAW264.7 (48h), XQ2 2.5 μM), the viability at 48 h, 2.5 µM turned out to be 104%. Besides, the viability at 48 h, 5 µM in the series “in vitro” (RAW264.7 cells, RAW264.7 (48h), XQ2 5 μM) turned out to be 102%. The viability at 48 h, 10 µM in “in vitro” (RAW264.7 cells, RAW264.7 (48h), XQ2 10 μM) was found to be 103%. The “Cell viability (Fig. S2e)” value is 99.8864 and 99.6917 in the series on RAW264.7 cells (XQ2 0.16 μM); 112.786 and 105.825 with RAW264.7 cells (XQ2 0.31 μM); 111.812 and 107.48 in the series with RAW264.7 cells (XQ2 0.63 μM); 113.808 and 104.608 in the series with RAW264.7 cells (XQ2 1.25 μM); 105.825 and 105.241 with RAW264.7 cells (XQ2 2.5 μM); 107.821 and 104.219 in the series with RAW264.7 cells (XQ2 5 μM). Moreover, the “Cell viability (Fig. S2e)” value in the series with RAW264.7 cells (XQ2 10 μM) was 108.843 and 106.117; in the series with L929 cells [2] (XQ2 0.23 μM) it was 110.662 and 106.618; in the series on L929 cells [2] (XQ2 0.47 μM), 92.2794 and 86.3971; in the series with L929 cells [2] (XQ2 0.94 μM), 87.1324 and 89.2157; in the series with L929 cells [2] (XQ2 1.88 μM), 84.4363 and 91.299; with L929 cells [2] (XQ2 3.75 μM) it was 94.6078 and 92.0343. The “Cell viability (Fig. S2e)” value in the series with L929 cells [2] (XQ2 7.5 μM) is 92.2794 and 92.1569; with L929 cells [2] (XQ2 15 μM), 85.049 and 94.6078. Besides, the “cytotoxicity” value was “no cytotoxicity” in the series on RAW264.7 cells (RAW264.7, 48h) and “no cytotoxicity” in the series with L929 cells [2] (L929, 48h). Besides, the “HSV-1-induced cytopathogenic effect in L929 cells” value in the series on L929 cells [3] was “promotion of XQ2 on HSV-1-induced cytopathogenic effect in mouse fibroblast L929 cells”. In addition, the IC50 (usually the concentration at which inhibition is half-maximal) on hcGAS-FL + FAM-ISD was determined as 19.2 ± 6.7 µM.

On to `CC(C)C[C@@H]1NC(=O)[C@H](CCCNC(=N)N)NC(=O)[C@H](C(C)C)NC(=O)[C@@H]2CCCN2C(=O)[C@@H](Cc2ccccc2)NC(=O)[C@H](CC(C)C)NC(=O)[C@H](CCCNC(=N)N)NC(=O)[C@H]([C@@H](C)O)NC(=O)[C@H](C)NC(=O)[C@@H](Cc2ccccc2)NC1=O` [XQ2B] (cyclo([dF]ATRL[dF]PVRL)), for which the “IFNB1 mRNA level (Fig. S7c)” value in series [4] (2'3'-cGAMP, XQ2B) is 4003.21 and 3809.06 and 3708.08; in series [4] (SATE-cddA, XQ2B) it was 747.639 and 650.174 and 712.905; in series [4] (c-di-AM(PS)2, XQ2B), 9.033 and 9.206 and 10.1658. The “signaling induced by STING agonists” value in series [4] (THP1, 10 μM) was “no significant effect on signaling induced by STING agonists”.

The values are drawn from PMC10545747, “Development of cyclopeptide inhibitors of cGAS targeting protein-DNA interaction and phase separation” (Nature Communications, 2023).
